Test results: PubChem BioAssay (NCI)
Several values for one entry are separate records, joined by “and”; a condition that tells them apart may be missing. Identical values can stand only once.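 In this assay, cells in 96-well plates receive the compound at five concentrations for 48 hours. Endpoints are linearly interpolated between the surrounding concentrations. GI50 = concentration required for 50% inhibition of growth. TGI marks complete inhibition of growth.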

Columns and labels:
Assay in all cases: NCI tumour cell line growth inhibition, 48 h
SK-OV-3 ovarian = test system: SK-OV-3 ovarian
HL-60(TB) leukemia = test system: HL-60(TB) leukemia
SF-268 CNS = test system: SF-268 CNS
SR leukemia = test system: SR leukemia
LOX IMVI melanoma = test system: LOX IMVI melanoma
KM12 colon = test system: KM12 colon
NCI/ADR-RES ovarian = test system: NCI/ADR-RES ovarian
MDA-MB-435 = test system: MDA-MB-435
T-47D breast = test system: T-47D breast
U251 CNS = test system: U251 CNS

Row | Structure (SMILES) | GI50 (SK-OV-3 ovarian) | TGI (SK-OV-3 ovarian) | GI50 (HL-60(TB) leukemia) | TGI (HL-60(TB) leukemia) | GI50 (SF-268 CNS) | TGI (SF-268 CNS) | GI50 (SR leukemia) [nM] | TGI (SR leukemia) [µM] | GI50 (LOX IMVI melanoma) | TGI (LOX IMVI melanoma) | GI50 (KM12 colon) | TGI (KM12 colon) | GI50 (NCI/ADR-RES ovarian) | TGI (NCI/ADR-RES ovarian) | GI50 (MDA-MB-435) | TGI (MDA-MB-435) | GI50 (T-47D breast) | TGI (T-47D breast) | GI50 (U251 CNS) | TGI (U251 CNS)
1 | N/C(=N\OC(=O)c1ccccc1)C(Cc1ccccc1)C(=O)NOC(=O)c1ccccc1 (stereo not drawn) | 5480 nM | 18.2 µM | 2350 nM | 6.56 µM | 1640 nM | 3.33 µM | 1080 | 3.68 | 1460 nM | 3.68 µM | 2190 nM | 5.28 µM | 2720 nM | 11.3 µM | 1760 nM | 3.9 µM | 3180 nM | 15.8 µM | 1360 nM | 2.87 µM
2 | C[C@@H]1Cc2cc(O)ccc2[C@H]2CC[C@]3(C)/C(=C/COCCN(C)C)CC[C@H]3[C@H]12 (tested in a mixture with another compound) | 228 nM | 0.62 µM | 244 nM | 0.628 µM | 111 nM | 0.235 µM | 212 | 0.55 | 187 nM | 0.389 µM | 309 nM | 0.895 µM | 192 nM | 0.419 µM | 268 nM | 0.875 µM | 122 nM | 0.679 µM | 216 nM | 0.528 µM
3 | O=C1C(OCCOc2ccccc2)=C(OCCOc2ccccc2)C(=O)c2ccccc21 | 23100 nM | > 100 µM | > 100000 nM | > 100 µM | 6310 nM | > 100 µM | 7260 | > 100 | 3750 nM | > 100 µM | 4710 nM | > 100 µM | 7640 nM | > 100 µM | 35400 nM | > 100 µM | > 100000 nM | > 100 µM | 5000 nM | > 100 µM
4 | CN1CCN(CCCCCN=c2cc3c(=O)n(CCCCCN4CCN(C)CC4)c(=O)c4c(NCCCCCN5CCN(C)CC5)cc5c(O)n(CCCCCN6CCN(C)CC6)c(=O)c2c5c4-3)CC1 | 2030 nM | 5.62 µM | 7160 nM | 59 µM | 2070 nM | 6.09 µM | 4010 | 25.1 | 2940 nM | 12.8 µM | 2490 nM | 8.39 µM | > 100000 nM | > 100 µM | 2700 nM | 8.73 µM | 3590 nM | 25.4 µM | 2210 nM | 6.68 µM
5 | COc1cccc(Oc2ccccc2NC(=O)CNC(=O)c2cccc3ccccc23)c1 | 494 nM | 12.3 µM | 81 nM | 0.237 µM | 547 nM | > 25 µM | 115 | > 25 | 267 nM | > 25 µM | 190 nM | 19.6 µM | 238 nM | 5.69 µM | 71.1 nM | 0.256 µM | 138 nM | 17.6 µM | 242 nM | > 25 µM
6 | Oc1cc(-n2cccn2)c(O)cc1-n1cccn1 |  | > 100 µM |  | 15.6 µM |  | > 82.5 µM |  | 73.3 |  | 42.4 µM |  | > 86.5 µM |  | > 100 µM |  | 31.8 µM |  | 56.3 µM |  | > 78.2 µM
7 | COc1ccc(/C=C(/C)[N+](=O)[O-])cc1OC | 14300 nM and 16700 nM | 27.4 µM and 30.4 µM | 2420 nM and 2470 nM | 5.76 µM and 8.93 µM | 2820 nM and 3610 nM | 7.13 µM and 13.2 µM | 1260 | 7 | 1600 nM and 1150 nM | 3.21 µM and 3.55 µM | 3660 nM and 2100 nM | 9.69 µM and 5.79 µM | 2970 nM and 3250 nM | 9.77 µM and 13.9 µM | 2170 nM and 2100 nM | 5.55 µM and 5.29 µM | 1540 nM and 1370 nM | 3.29 µM and 3.23 µM | 2300 nM and 1670 nM | 6.14 µM and 3.14 µM
8 | COc1cc(-c2nn(-c3cccc(NC(=O)CCN4CCN(Cc5ccccc5)CC4)c3)cc2-c2ccncc2)ccc1Cl | 4860 nM | 20.6 µM | 632 nM | 4.21 µM | 1050 nM | 3.84 µM | 393 | 2.48 | 661 nM | 1.98 µM | 583 nM | 3.86 µM | 440 nM | 2.28 µM | 237 nM | 0.737 µM | 2760 nM | 27.6 µM | 839 nM | 2.76 µM
9 | COc1ccc2c(-c3ccnc(Nc4cccc(OC(F)(F)F)c4)n3)cnn2n1 | 1190 nM | 6.1 µM | 1070 nM | > 25 µM | 1530 nM | 6.53 µM | 904 | > 25 | 1020 nM | 6.47 µM | 772 nM | 3.95 µM | 730 nM | 6.74 µM | 144 nM | 0.692 µM | 1710 nM | 6.56 µM | 1080 nM | 5.18 µM
10 | C1CSCCSCCCSCCSCCCSCCSCCCSCCSC1 |  | > 100 µM |  | > 100 µM |  | > 100 µM |  | > 100 |  | > 100 µM |  | > 100 µM |  | > 100 µM |  | > 100 µM |  | > 100 µM |  | > 100 µM
11 | CN1CCc2nc3sc(C(N)=O)c(N)c3c(-c3cccs3)c2C1 | 3350 nM | > 100 µM | 2500 nM | 6.97 µM | 3850 nM | > 100 µM | 1800 | 7.31 | 1270 nM | > 100 µM | 2700 nM | > 100 µM | 3690 nM | 98.8 µM | 3130 nM | > 100 µM | 2810 nM | > 100 µM | 3180 nM | > 100 µM
12 | COc1ccc(Nc2ccnc(N3CCN(c4ccnc5cc(Cl)ccc45)CC3)n2)cc1 | 2620 nM | > 100 µM | 1140 nM | 7.18 µM | 2310 nM | > 100 µM | 601 | 6.88 | 884 nM | 5.23 µM | 1010 nM | 4.16 µM | 769 nM | 5.22 µM | 227 nM | 0.707 µM | 1390 nM | 6.99 µM | 1170 nM | 11.5 µM
13 | Nc1n[nH]c2ccc([C@@H]3Nc4cc5c(cc4[C@H]4C6CCC(C6)[C@@H]34)C(=O)NC5)cc12 (stereo partly drawn) | 844 nM | > 100 µM | 282 nM |  | 1040 nM | > 100 µM | 149 | > 100 | 291 nM | > 100 µM | 472 nM | > 100 µM | 2690 nM | > 100 µM | 126 nM | 0.49 µM |  | > 100 µM | 418 nM | > 100 µM
14 | COc1cc2c(cc1F)C(c1ccccc1Cl)=Nc1c(n[nH]c1C)N2 | 1590 nM | 33.1 µM | 838 nM | 20.8 µM | 1140 nM | 11.7 µM | 417 | 32.8 | 940 nM | 13.1 µM | 502 nM | 15.5 µM | 465 nM | 29.5 µM | 172 nM | 19.1 µM | 1590 nM | 26.4 µM | 583 nM | 18.3 µM
15 | CCc1c(C)nc2sc3c(N)ncnc3c2c1C | > 25000 nM | > 25 µM | > 25000 nM | > 25 µM | > 25000 nM | > 25 µM | > 25000 | > 25 | > 25000 nM | > 25 µM | > 25000 nM | > 25 µM | > 25000 nM | > 25 µM | > 25000 nM | > 25 µM | > 25000 nM | > 25 µM | > 25000 nM | > 25 µM
16 | Cc1ccncc1C(N)=O | > 100000 nM | > 100 µM | > 100000 nM | > 100 µM | > 100000 nM | > 100 µM | > 100000 | > 100 | > 100000 nM | > 100 µM | > 100000 nM | > 100 µM | > 100000 nM | > 100 µM | > 100000 nM | > 100 µM | > 100000 nM | > 100 µM | > 100000 nM | > 100 µM
17 | COC(=O)c1cc(-c2ccc(OC)c(OC)c2)[nH]c1N/N=C/c1c(Cl)cccc1Cl | 567 nM | 2.66 µM | 250 nM | 0.531 µM | 705 nM | 6.27 µM | 394 | > 100 | 837 nM | 13 µM | 400 nM | 9.69 µM | 557 nM | 9.01 µM | 127 nM | 0.562 µM | 3990 nM | 92.5 µM | 671 nM | 2.43 µM
18 | C=C1[C@@H](O)O[C@H]2[C@H]1C[C@H](OC(C)=O)[C@]13C(=O)O[C@H]4C[C@](C)(O)[C@H]([C@H]41)C31C=C(C)[C@]2(O)O1 | > 100000 nM | > 100 µM | 61800 nM | > 100 µM | 34500 nM | > 100 µM | 40900 | > 100 | 29600 nM | > 100 µM | 36800 nM | > 100 µM | 28000 nM | 80.8 µM | 13300 nM | > 100 µM | > 100000 nM | > 100 µM | 24200 nM | 64.7 µM
19 | CC1c2ccccc2CCN1c1ccc(CO)c(Cl)c1 (stereo not drawn) | 1610 nM | 10.7 µM | 21300 nM | 70.2 µM | 40800 nM | > 100 µM | 28300 | > 85.9 | 22200 nM | 49.8 µM | 22600 nM | > 72.5 µM | 13100 nM | 50.5 µM | 17300 nM | 53.5 µM | 53 nM | 0.311 µM | 318 nM | > 46.1 µM
20 | COc1ccc2c(c1)C(=O)c1c-2c(OCCN(C)C)nc2ccccc12 | 4870 nM | 35.3 µM | 3190 nM | 15.4 µM | 2340 nM | 10.7 µM | 998 | 6.76 | 1540 nM | 4.91 µM | 1190 nM | 3.28 µM | 3050 nM | 14.5 µM | 2580 nM | 10.1 µM | 4050 nM | 18.3 µM | 2280 nM | 9.87 µM
21 | C[CH2][Hg][S]c1ccccc1C(=O)O | 2770 nM | 8.21 µM | 314 nM | 1.18 µM | 1680 nM | 3.18 µM | 444 | 3.75 | 488 nM | 2.16 µM | 3820 nM | 13.3 µM | 1940 nM | 4.79 µM | 1400 nM | 2.95 µM | 522 nM | 2.79 µM | 1560 nM | 3.03 µM
22 | FC(F)(F)c1cccc(-c2nn3ncccc3c2-c2ccnc(Nc3ccc4c(c3)OCCO4)n2)c1 | 8990 nM | > 25 µM | 11900 nM | > 25 µM | 19400 nM | > 25 µM | 10400 | > 25 | 10000 nM | > 25 µM | 14100 nM | > 25 µM | 8960 nM | > 25 µM | 13100 nM | > 25 µM | 7370 nM | > 25 µM | 19500 nM | > 25 µM
